The text below walks through data of patent EP2902035B1, “Cell-permeable peptide inhibitors of the JNK signal transduction pathway for use in the treatment of inflammatory eye diseases” (Xigen Inflammation Ltd., priority 2010, dated 2012).

The subject of one series is iNOS positive cells. Put plainly: Immunohistochemistry of iNOS on eye sections in EIU. The series is classed as in vivo, Lewis rats. The note with it: IV or IVT injection compared to control eyes, 24h. Here is the method:
A second set of experiment was designed to evaluate the anti-inflammatory effect of the JNK-inhibitor (poly-)peptide of SEQ ID NO: 11 at the cellular and tissue level as well as the biodistribution of this molecule 24 hours after administration. Rats were randomized into 11 experimental groups. 6 groups of rats with uveitis: untreated uveitic rats, rats injected intravenously with NaCl or the JNK-inhibitor (poly-)peptide of SEQ ID NO: 11 and rats injected intravitreously with the vehicle, the JNK-inhibitor (poly-)peptide of SEQ ID NO: 11 or dexamethasone. The 5 additional groups without uveitis were: untreated healthy rats, rats treated by NaCl IV or the JNK-inhibitor (poly-)peptide of SEQ ID NO: 11 IV and rats injected IVT with NaCl or the JNK-inhibitor (poly-)peptide of SEQ ID NO: 11. Three eyes from separate rats were collected per group and used for immunohistochemistry. To characterize the cellular infiltrate, sections were double-stained with ED1 and iNOS. […] After staining nuclei with DAPI (Sigma-Aldrich, Saint-Quentin Fallavier, France), sections were mounted in PBS/Glycerol (1/1) and observed by fluorescence photomicroscopy (FXA, Microphot, Nikon, Melville, USA). […] ED1 positive cells and polymorphonuclear cells, identified by the shape of their nuclei stained with DAPI, were quantified on histological sections. […] Results were expressed as mean ± standard error of the mean (SEM).

Another series concerns healthy eyes. More on the design: species or system Lewis rats. The note with it: rat, in vivo. Here is the method:
For immunohistochemistry, eyeballs were collected and fixed for 1h at room temperature in phosphate buffered saline (PBS) containing 4% paraformaldehyde before being rinsed overnight in PBS. The next day, samples were embedded and frozen in optimal cutting-temperature (OCT) compound (Tissue-Tek®, Sakura Finetek, Zoeterwoude, Netherland) and stored at -80°C. Frozen antero-posterior sections of eyes (10 µm thick) were performed at the optic nerve level using a cryostat (Leica CM 3050S, Rueil-Malmaison, France) and mounted on super-frost slides for immunohistochemical analysis.
A second set of experiment was designed to evaluate the anti-inflammatory effect of the JNK-inhibitor (poly-)peptide of SEQ ID NO: 11 at the cellular and tissue level as well as the biodistribution of this molecule 24 hours after administration. Rats were randomized into 11 experimental groups. 6 groups of rats with uveitis: untreated uveitic rats, rats injected intravenously with NaCl or the JNK-inhibitor (poly-)peptide of SEQ ID NO: 11 and rats injected intravitreously with the vehicle, the JNK-inhibitor (poly-)peptide of SEQ ID NO: 11 or dexamethasone. The 5 additional groups without uveitis were: untreated healthy rats, rats treated by NaCl IV or the JNK-inhibitor (poly-)peptide of SEQ ID NO: 11 IV and rats injected IVT with NaCl or the JNK-inhibitor (poly-)peptide of SEQ ID NO: 11. […]

`CC(C)C[C@@H](NC(=O)[C@@H](Cc1ccccc1)NC(=O)[C@H]1CCCN1C(=O)[C@@H](CCC(N)=O)NC(=O)[C@H](NC(=O)[C@H]1CCCN1C(=O)[C@@H](CCCNC(=N)N)NC(=O)[C@@H](CO)NC(=O)[C@@H](CCC(N)=O)NC(=O)[C@H](N)CC(=O)O)C(C)C)C(=O)N[C@H](CC(N)=O)C(=O)N[C@H](CC(C)C)C(=O)N[C@@H](C(=O)N[C@@H](C(=O)N1CCC[C@@H]1C(=O)N[C@H](CCCNC(=N)N)C(=O)N[C@H](CCCCN)C(=O)N1CCC[C@@H]1C(=O)N[C@H](CCCNC(=N)N)C(=O)N1CCC[C@@H]1C(=O)N1CCC[C@@H]1C(=O)N[C@H](CCCNC(=N)N)C(=O)N[C@H](CCCNC(=N)N)C(=O)N[C@H](CCCNC(=N)N)C(=O)N[C@H](CCC(N)=O)C(=O)N[C@H](CCCNC(=N)N)C(=O)N[C@H](CCCNC(=N)N)C(=O)N[C@H](CCCCN)C(=O)N[C@H](CCCCN)C(=O)N[C@H](CCCNC(=N)N)C(=O)NCC(=O)O)[C@H](C)O)[C@H](C)O` [SEQ ID NO: 11]: the “number of iNOS positive cells” value with iNOS positive cells was “reduced”. In addition, the “inflammatory cell infiltration in healthy eyes” value in the series with healthy eyes is “No inflammatory cell infiltration”.
